Assay results from US20250002527A1, “STEROID COMPOUND AND CONJUGATE THEREOF” (DUALITY BIOLOGICS (SUZHOU) CO., LTD., priority 2021, published 2025).
pEC50: −log10 of the molar value.

Tests used:
[1] = system: human PBMC cells; assay: TNF-α secretion from PBMC under R848 stimulation (compounds); type: cell-based; conditions: R848 5 μM, 24 hours, mean ± standard deviation
Experimental: The compounds of the present application were tested for their inhibitory effect on the production of peripheral blood monocytes. The peripheral blood monocytes were treated in vitro with the ligand-drug conjugate at different concentrations, and IFNα and TNFα generated by the peripheral blood monocytes were quantitatively detected after a certain time. The compounds of the present invention were evaluated for in-vitro activity.
The cryopreserved human PBMC cells were resuspended in a complete medium and counted, and the cell suspension was adjusted to 2.5×10*6 cells/mL with the culture medium. After the suspension was centrifuged to collect the cells the next day, the cells were resuspended using fresh culture medium. Test compounds were diluted to 4-fold final concentration in cell culture medium, 50 μL of the compounds were added into a 96-well cell plate, and 100 μL of diluted cells ([…]) were added into each well of the 96-well plate containing the compounds, followed by addition of 50 μL R848 to a final concentration of 5 μM. The cell plate was incubated at 37° C. with 5% CO2 for 24 hours. The supernatant was collected, and the TNF-α and IFN-α concentration levels in the supernatant were detected using an ELISA kit.
TNF-α concentration assay was performed using Dakewe TNF-α ELISA kit (Cat #1117202), 100 μL of the serially-diluted cytokine standard was added into each well, 100 μL of the above supernatant diluted 10-fold was added into each well, and 100 μL of 1× dilution buffer R was added into each blank well. 50 μL of biotinylated antibody working solution was added into each well. After mixing well, the plate was covered with the plate-sealing membrane and incubated at room temperature for 3 hours. The plate was washed for 3 times: the liquid in each well was discarded, and 300 μL of 1× washing buffer working solution was added into each well; after 1 minute of residence, the liquid in the wells was discarded. The procedure was repeated for 3 times. 100 μL of Streptavidin-HRP working solution was added into each well. The plate was covered with the plate-sealing membrane and incubated at room temperature for 20 minutes. The plate was washed for 3 times, 100 μL of TMB liquid was added into each well, and the plate was incubated for 25 minutes at room temperature (18-25° C.) in the dark. The reaction was stopped by adding 100 μL stop solution rapidly to each well. The reading at a wavelength of 450 nm was detected by an M2e instrument within 10 minutes after termination.
The contents of TNF-α and IFN-α were calculated from the OD450 values.

[2] = biological target: T1, MR (Homo sapiens, UniProt P08235); assay: MR luciferase reporter gene experiment; type: cell-based; conditions: HEK293 transfected with pBIND-MR
T1 construct: expressed in transfected cells; host or cells: HEK293
T1 sequence (P08235 1-984): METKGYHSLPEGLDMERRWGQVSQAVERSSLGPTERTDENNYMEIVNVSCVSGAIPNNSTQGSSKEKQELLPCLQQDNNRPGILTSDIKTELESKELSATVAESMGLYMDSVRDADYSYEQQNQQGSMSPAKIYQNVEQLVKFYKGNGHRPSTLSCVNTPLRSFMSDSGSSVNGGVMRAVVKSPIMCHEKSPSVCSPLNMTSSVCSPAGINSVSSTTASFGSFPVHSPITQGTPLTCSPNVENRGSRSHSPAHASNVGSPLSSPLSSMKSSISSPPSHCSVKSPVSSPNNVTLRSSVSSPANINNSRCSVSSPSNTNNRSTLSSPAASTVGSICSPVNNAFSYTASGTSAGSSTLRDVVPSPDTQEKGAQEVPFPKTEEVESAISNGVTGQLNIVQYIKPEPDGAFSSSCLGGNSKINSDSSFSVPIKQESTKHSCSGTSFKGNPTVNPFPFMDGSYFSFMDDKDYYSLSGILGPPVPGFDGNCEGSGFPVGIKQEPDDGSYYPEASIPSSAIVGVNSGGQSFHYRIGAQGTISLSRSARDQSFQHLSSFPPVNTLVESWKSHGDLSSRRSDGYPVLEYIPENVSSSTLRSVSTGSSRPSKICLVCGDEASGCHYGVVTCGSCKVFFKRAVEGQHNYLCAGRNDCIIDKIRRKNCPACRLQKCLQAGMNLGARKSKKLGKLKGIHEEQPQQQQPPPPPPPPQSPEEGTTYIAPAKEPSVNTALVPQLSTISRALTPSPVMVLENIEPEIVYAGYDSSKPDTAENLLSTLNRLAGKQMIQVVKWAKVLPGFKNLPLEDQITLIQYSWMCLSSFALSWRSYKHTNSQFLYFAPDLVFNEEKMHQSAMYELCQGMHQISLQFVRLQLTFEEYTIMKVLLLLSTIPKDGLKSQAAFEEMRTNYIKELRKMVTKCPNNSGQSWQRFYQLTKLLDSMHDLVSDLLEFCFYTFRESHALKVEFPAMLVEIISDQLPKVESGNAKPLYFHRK
Experimental: HEK293 cells were cultured in DMEM+10% FBS medium in a carbon dioxide incubator humidified at 37° C. at 5% carbon dioxide.
• 1) HEK293 cells were trypsinized, and the HEK293 cell resuspension was adjusted to 200,000 cell/mL in medium (96 well plate: 100 μL/well). • 2) Transfection reagent mixtures were prepared according to the table below, mixed well and left at room temperature for 20 minutes.
• 3) The prepared transfection mixtures were added to 10 mL of the cell density-adjusted resuspension, mixed well by turning the mixtures upside down, and seeded into a 96-well plate at a volume of 100 μL/well. • 4) The 96-well plate was incubated in a humidified incubator at 37° C. and 5% carbon dioxide for 24 hours.
The test plate was detected using the Dual-Glo Luciferase Assay System kit from Promega, and the fluorescence signal of Firefly Luciferase and the fluorescence signal of Renilla Luciferase were read using Enspire, respectively.
Y is the agonism and X is the concentration of the compound.

SMILES: C[C@]12C=CC(=O)C=C1CC[C@@H]1[C@@H]2[C@@H](O)C[C@@]2(C)[C@H]1C[C@H]1O[C@@H](c3ccc(Cc4ccc(CO)cc4)cc3)O[C@]12C(=O)CO [Compound 4]
- TNF-α secretion (pg/mL) from PBMC under R848 stimulation ([1]; compound 4 nM): 443.6 pg/mL
- TNF-α secretion (pg/mL) from PBMC under R848 stimulation ([1]; compound 20 nM): 320 pg/mL
- TNF-α secretion (pg/mL) from PBMC under R848 stimulation ([1]; compound 100 nM): 356.1 pg/mL
- pEC50 [2]: < 6.00
